Measurements from US20170204092A1, “4,5-DIHYDROISOXAZOLE DERIVATIVES AS NAMPT INHIBITORS” (AURIGENE DISCOVERY TECHNOLOGIES LIMITED, priority 2014, published 2017).
Like-named read-outs stand apart in the source and are kept apart here. One block for each molecule: values may come before it.

How the values were obtained:
[1] = biological target: T1, recombinant NAMPT wild type protein (Homo sapiens, UniProt P43490); assay: NAMPT fluorescence assay; format: biochemical; conditions: 50 ng NAMPT, 2 μM Nam, 10 point dose response; read-out: Fluorescence assay IC50 in range
T1 construct: made in house; host or cells: E. coli
T1 sequence (P43490 whole entry): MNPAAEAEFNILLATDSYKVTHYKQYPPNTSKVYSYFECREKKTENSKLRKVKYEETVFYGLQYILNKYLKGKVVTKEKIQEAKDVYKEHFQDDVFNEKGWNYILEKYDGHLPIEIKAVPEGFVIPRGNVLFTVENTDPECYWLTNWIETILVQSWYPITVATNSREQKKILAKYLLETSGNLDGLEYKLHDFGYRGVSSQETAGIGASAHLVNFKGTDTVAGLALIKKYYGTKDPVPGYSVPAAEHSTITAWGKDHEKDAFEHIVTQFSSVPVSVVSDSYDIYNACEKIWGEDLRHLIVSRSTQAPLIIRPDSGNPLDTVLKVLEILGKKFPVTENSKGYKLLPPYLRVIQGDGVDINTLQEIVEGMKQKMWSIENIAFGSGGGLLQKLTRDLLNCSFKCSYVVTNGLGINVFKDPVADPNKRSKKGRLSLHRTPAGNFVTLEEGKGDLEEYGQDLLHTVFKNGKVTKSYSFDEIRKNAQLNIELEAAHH
Method: The enzymatic assay was standardized using in-house recombinant NAMPT wild type protein from E. coli expression & NAM (Cat #47865-U) as a substrate. The product NMN formed after enzymatic reaction was derivatized to a fluorescent derivative through sequentially reacting with acetophenone/KOH and formic acid. The derivatized fluorescent NMN derivative was detected at 382 nm excitation wavelength and a 445 nm emission wavelength. […] The fluorescence was measured (Excitation at 382 nm & Emission at 445 nm) using Victor^3 V fluorimeter. The data is calculated using the RFU values. The final concentration of DMSO was 2% in the assay. Each individual IC50 was determined using 10 point dose response curve generated by GraphPad Prism software Version 4 (San Diego, Calif., USA) using nonlinear regression curve fit for sigmoidal dose response (variable slope).

[2] = test system: MiaPaCa-2 cells; assay: Cytotoxicity assay in MiaPaCa-2 (XTT, 72 h); format: cell-based; conditions: for IC50: XTT, read-out: Cell cytotoxicity assay IC50 in range; for inhibition at 1 µM / inhibition at 10 µM / Cell cytotoxicity assay (% Inhibition at 1 μM) / Cell cytotoxicity assay (% Inhibition at 10 μM): DMSO control = 0% inhibition; for inhibition at 1 µM: read-out: Cell cytotoxicity assay (% Inhibition at 1 μM); for inhibition at 10 µM: read-out: Cell cytotoxicity assay (% Inhibition at 10 μM)
Method: MiaPaCa-2 Cells (ATCC) were seeded in 96 well plates (Costar clear flat bottom) at a density of 3000 cells/well and allowed to settle overnight. Test compounds were dissolved in dimethyl sulphoxide (DMSO-Sigma Aldrich, D2650) and incubated with MiaPaCa-2 cells for 72 h. Post 72 h, 50 μl XTT (1 mg/mL; Invitrogen, X 6493) and PMS ([…]; Sigma Aldrich, P9625) reagents were added to the cells in 100 μl of cDMEM (Sigma Aldrich-D5648)+10% FBS (Hyclone-5430088-03)+1×Pen Strep (Sigma Aldrich-P0781). After 1 hour incubation with XTT and PMS absorbance was monitored with Spectramax M3 (Molecular Device). Percentage inhibition of proliferation at 10 μM and 1 μM concentrations was calculated by considering DMSO control as 0% inhibition. IC50 values were plotted using Graph pad prism software (Graph pad Inc, La Jola, Calif., USA).

IC50 [1]: < 10 nM
Compound: Cn1cc(-c2cccnc2OCC2CC(CNC(=O)c3ccc4nccn4c3)=NO2)cn1 (racemic) [Example 1, N-((5-(((3-(1-methyl-1H-pyrazol-4-yl)pyridin-2-yl)oxy)methyl)-4,5-dihydroisoxazol-3-yl)methyl)imidazo[1,2-a]pyridine-6-carboxamide]
IC50 ([2]; Homo sapiens, MIA PaCa-2, 72 h): > 250 nM

IC50 [1]: < 10 nM
Compound: O=C(NCC1=NOC(COc2ncccc2-c2ccc(F)nc2)C1)c1ccc2nccn2c1 (racemic) [Example 2, N-((5-(((6′-fluoro-[3,3′-bipyridin]-2-yl)oxy)methyl)-4,5-dihydroisoxazol-3-yl)methyl)-imidazo[1,2-a]pyridine-6-carboxamide]
inhibition at 1 µM ([2]; Homo sapiens, MIA PaCa-2, 72 h): 95%
inhibition at 10 µM ([2]; Homo sapiens, MIA PaCa-2, 72 h): 97%
IC50 ([2]; Homo sapiens, MIA PaCa-2, 72 h): 50 to 250 nM

Compound: O=C(NCC1=NOC(COc2ccncc2-c2ccc(F)nc2)C1)c1ccc2nccn2c1 (racemic) [Example 3, N-((5-(((6′-fluoro-[3,3′-bipyridin]-4-yl)oxy)methyl)-4,5-dihydroisoxazol-3-yl)methyl)-imidazo[1,2-a]pyridine-6-carboxamide]
inhibition at 1 µM ([2]; Homo sapiens, MIA PaCa-2, 72 h): 5%
inhibition at 10 µM ([2]; Homo sapiens, MIA PaCa-2, 72 h): 80%
IC50 ([2]; Homo sapiens, MIA PaCa-2, 72 h): > 250 nM

IC50 [1]: < 10 nM
Compound: O=C(NCC1=NOC(COc2cccnc2-c2ccc(F)nc2)C1)c1ccc2nccn2c1 (racemic) [Example 4, N-((5-(((6′-fluoro-[2,3′-bipyridin]-3-yl)oxy)methyl)-4,5-dihydroisoxazol-3-yl)methyl)imidazo[1,2-a]pyridine-6-carboxamide]
inhibition at 1 µM ([2]; Homo sapiens, MIA PaCa-2, 72 h): 96%
inhibition at 10 µM ([2]; Homo sapiens, MIA PaCa-2, 72 h): 96%
IC50 ([2]; Homo sapiens, MIA PaCa-2, 72 h): < 50 nM

IC50 [1]: < 10 nM
Compound: Cn1cc(-c2ncccc2OCC2CC(CNC(=O)c3ccc4nccn4c3)=NO2)cn1 (racemic) [Example 5, N-((5-(((2-(1-methyl-1H-pyrazol-4-yl)pyridin-3-yl)oxy)methyl)-4,5-dihydroisoxazol-3-yl)methyl)imidazo[1,2-a]pyridine-6-carboxamide]
inhibition at 1 µM ([2]; Homo sapiens, MIA PaCa-2, 72 h): 47%
inhibition at 10 µM ([2]; Homo sapiens, MIA PaCa-2, 72 h): 95%
IC50 ([2]; Homo sapiens, MIA PaCa-2, 72 h): 50 to 250 nM

IC50 [1]: > 25 nM
Compound: CNC(=O)c1ccc(-c2ncccc2OCC2CC(CNC(=O)c3ccc4nccn4c3)=NO2)cc1F (racemic) [Example 6, N-((5-(((2-(3-fluoro-4-(methylcarbamoyl)phenyl)pyridin-3-yl)oxy)methyl)-4,5-dihydroisoxazol-3-yl)methyl)imidazo[1,2-a]pyridine-6-carboxamide]
inhibition at 1 µM ([2]; Homo sapiens, MIA PaCa-2, 72 h): 15%
inhibition at 10 µM ([2]; Homo sapiens, MIA PaCa-2, 72 h): 80%
IC50 ([2]; Homo sapiens, MIA PaCa-2, 72 h): > 250 nM

IC50 [1]: 10 to 25 nM
Compound: O=C(NCC1=NOC(COc2cccnc2-c2cccnc2)C1)c1ccc2nccn2c1 (racemic) [Example 7, N-((5-(([2,3′-bipyridin]-3-yloxy)methyl)-4,5-dihydroisoxazol-3-yl)methyl)-imidazo[1,2-a]pyridine-6-carboxamide]
inhibition at 1 µM ([2]; Homo sapiens, MIA PaCa-2, 72 h): 90%
inhibition at 10 µM ([2]; Homo sapiens, MIA PaCa-2, 72 h): 90%
IC50 ([2]; Homo sapiens, MIA PaCa-2, 72 h): 50 to 250 nM

IC50 [1]: 10 to 25 nM
Compound: O=C(NCC1=NOC(COc2cccnc2-c2ccc(Cl)nc2)C1)c1ccc2nccn2c1 (racemic) [Example 8, N-((5-(((6′-chloro-[2,3′-bipyridin]-3-yl)oxy)methyl)-4,5-dihydroisoxazol-3-yl)methyl)imidazo[1,2-a]pyridine-6-carboxamide]
IC50 ([2]; Homo sapiens, MIA PaCa-2, 72 h): < 50 nM

IC50 [1]: 10 to 25 nM
Compound: O=C(NCC1=NOC(COc2cc(F)cnc2-c2ccc(F)nc2)C1)c1ccc2nccn2c1 (racemic) [Example 9, N-((5-(((5,6′-difluoro-[2,3′-bipyridin]-3-yl)oxy)methyl)-4,5-dihydroisoxazol-3-yl)methyl)imidazo[1,2-a]pyridine-6-carboxamide]
inhibition at 1 µM ([2]; Homo sapiens, MIA PaCa-2, 72 h): 88%
inhibition at 10 µM ([2]; Homo sapiens, MIA PaCa-2, 72 h): 89%
IC50 ([2]; Homo sapiens, MIA PaCa-2, 72 h): < 50 nM

IC50 [1]: 10 to 25 nM
Compound: N#Cc1ccc(OCC2CC(CNC(=O)c3ccc4nccn4c3)=NO2)c(-c2ccc(F)nc2)n1 (racemic) [Example 10, N-((5-(((6-cyano-6′-fluoro-[2,3′-bipyridin]-3-yl)oxy)methyl)-4,5-dihydroisoxazol-3-yl)methyl)imidazo[1,2-a]pyridine-6-carboxamide]
inhibition at 1 µM ([2]; Homo sapiens, MIA PaCa-2, 72 h): 95%
inhibition at 10 µM ([2]; Homo sapiens, MIA PaCa-2, 72 h): 95%
IC50 ([2]; Homo sapiens, MIA PaCa-2, 72 h): 50 to 250 nM

IC50 [1]: 10 to 25 nM
Compound: Cc1cnc(-c2ccc(F)nc2)c(OCC2CC(CNC(=O)c3ccc4nccn4c3)=NO2)c1 (racemic) [Example 11, N-((5-(((6′-fluoro-5-methyl-[2,3′-bipyridin]-3-yl)oxy)methyl)-4,5-dihydroisoxazol-3-yl)methyl)imidazo[1,2-a]pyridine-6-carboxamide]
inhibition at 1 µM ([2]; Homo sapiens, MIA PaCa-2, 72 h): 96%
inhibition at 10 µM ([2]; Homo sapiens, MIA PaCa-2, 72 h): 95%
IC50 ([2]; Homo sapiens, MIA PaCa-2, 72 h): < 50 nM

IC50 [1]: > 25 nM
Compound: Cc1ccc(OCC2CC(CNC(=O)c3ccc4nccn4c3)=NO2)c(-c2ccc(F)nc2)n1 (racemic) [Example 12, N-((5-(((6′-fluoro-6-methyl-[2,3′-bipyridin]-3-yl)oxy)methyl)-4,5-dihydroisoxazol-3-yl)methyl)imidazo[1,2-a]pyridine-6-carboxamide]
inhibition at 1 µM ([2]; Homo sapiens, MIA PaCa-2, 72 h): 96%
inhibition at 10 µM ([2]; Homo sapiens, MIA PaCa-2, 72 h): 95%
IC50 ([2]; Homo sapiens, MIA PaCa-2, 72 h): < 50 nM

IC50 [1]: < 10 nM
Compound: O=C(NCC1=NOC(COc2cc(Cl)cnc2-c2cccnc2)C1)c1ccc2nccn2c1 (racemic) [Example 13, N-((5-(((5-chloro-[2,3′-bipyridin]-3-yl)oxy)methyl)-4,5-dihydroisoxazol-3-yl)methyl)imidazo[1,2-a]pyridine-6-carboxamide]
inhibition at 1 µM ([2]; Homo sapiens, MIA PaCa-2, 72 h): 95%
inhibition at 10 µM ([2]; Homo sapiens, MIA PaCa-2, 72 h): 95%
IC50 ([2]; Homo sapiens, MIA PaCa-2, 72 h): 50 to 250 nM

Compound: O=C(NCC1=NOC(COc2cc(F)cnc2-c2cccnc2)C1)c1ccc2nccn2c1 (racemic) [Example 15, N-((5-(((5-fluoro-[2,3′-bipyridin]-3-yl)oxy)methyl)-4,5-dihydroisoxazol-3-yl)methyl)imidazo[1,2-a]pyridine-6-carboxamide]
inhibition at 1 µM ([2]; Homo sapiens, MIA PaCa-2, 72 h): 99%
inhibition at 10 µM ([2]; Homo sapiens, MIA PaCa-2, 72 h): 99%
IC50 ([2]; Homo sapiens, MIA PaCa-2, 72 h): 50 to 250 nM

Compound: O=C(NCC1=NOC(COc2cccnc2-c2cccnc2)C1)c1ccc2nccn2c1 (single isomer, unassigned) [Example 7b, N-((5-(([2,3′-bipyridin]-3-yloxy)methyl)-4,5-dihydroisoxazol-3-yl)methyl)-imidazo[1,2-a]pyridine-6-carboxamide]
IC50 [2]: > 250 nM

Compound: O=C(NCC1=NOC(COc2cccnc2-c2ccc(Cl)nc2)C1)c1ccc2nccn2c1 (single isomer, unassigned) [Example 8a, N-((5-(((6′-chloro-[2,3′-bipyridin]-3-yl)oxy)methyl)-4,5-dihydroisoxazol-3-yl)methyl)imidazo[1,2-a]pyridine-6-carboxamide]
Cell cytotoxicity assay (% Inhibition at 1 μM) [2]: 10%
Cell cytotoxicity assay (% Inhibition at 10 μM) [2]: 10%
IC50 [2]: > 10000 nM

Compound: N#Cc1ccc(OCC2CC(CNC(=O)c3ccc4nccn4c3)=NO2)c(-c2ccc(F)nc2)n1 (single isomer, unassigned) [Example 10a, N-((5-(((6-cyano-6′-fluoro-[2,3′-bipyridin]-3-yl)oxy)methyl)-4,5-dihydroisoxazol-3-yl)methyl)imidazo[1,2-a]pyridine-6-carboxamide]
inhibition at 1 µM ([2]; Homo sapiens, MIA PaCa-2, 72 h): 100%
inhibition at 10 µM ([2]; Homo sapiens, MIA PaCa-2, 72 h): 100%
IC50 ([2]; Homo sapiens, MIA PaCa-2, 72 h): < 50 nM

Compound: N#Cc1ccc(OCC2CC(CNC(=O)c3ccc4nccn4c3)=NO2)c(-c2ccc(F)nc2)n1 (single isomer, unassigned) [Example 10b, N-((5-(((6-cyano-6′-fluoro-[2,3′-bipyridin]-3-yl)oxy)methyl)-4,5-dihydroisoxazol-3-yl)methyl)imidazo[1,2-a]pyridine-6-carboxamide]
Cell cytotoxicity assay (% Inhibition at 1 μM) [2]: 100%
Cell cytotoxicity assay (% Inhibition at 10 μM) [2]: 100%

Compound: O=C(NCC1=NOC(COc2cc(Cl)cnc2-c2ccc(F)nc2)C1)c1ccc2nccn2c1 (single isomer, unassigned) [Example 14a, N-((5-(((5-chloro-6′-fluoro-[2,3′-bipyridin]-3-yl)oxy)methyl)-4,5-dihydroisoxazol-3-yl)methyl)imidazo[1,2-a]pyridine-6-carboxamide]
inhibition at 1 µM ([2]; Homo sapiens, MIA PaCa-2, 72 h): 93%
inhibition at 10 µM ([2]; Homo sapiens, MIA PaCa-2, 72 h): 98%
IC50 [2]: > 250 nM

Compound: O=C(NCC1=NOC(COc2cc(Cl)cnc2-c2ccc(F)nc2)C1)c1ccc2nccn2c1 (single isomer, unassigned) [Example 14b, N-((5-(((5-chloro-6′-fluoro-[2,3′-bipyridin]-3-yl)oxy)methyl)-4,5-dihydroisoxazol-3-yl)methyl)imidazo[1,2-a]pyridine-6-carboxamide]
Cell cytotoxicity assay (% Inhibition at 1 μM) [2]: 100%
Cell cytotoxicity assay (% Inhibition at 10 μM) [2]: 98%
IC50 [2]: < 50 nM
